Patent US20100056522A1, “INTRAOCULAR PRESSURE-LOWERING AGENT COMPRISING COMPOUND HAVING HISTONE DEACETYLASE INHIBITOR EFFECT AS ACTIVE INGREDIENT” (Santen Pharmaceutical Co., Ltd., priority 2007, published 2010)

Assays:
[1] = tested on: TM-1 cells (human trabecular meshwork cell line); experiment: Test for evaluation of effect of morphological change on trabecular meshwork cells (cell shape index); format: cell-based; details: 10 μM, 24 hours, control CSI 0.679, lower CSI indicates greater morphological change
Description: As a method for evaluating a cellular morphological change, an evaluation system using the cell shape index (hereinafter referred to as “CSI”) as an index has been reported in The Journal of Clinical Investigation, 103, 1141-1150 (1999). Therefore, according to the method described in the above document, an effect of morphological change by the present compounds on trabecular meshwork cells was evaluated.
A human trabecular meshwork cell line (hereinafter referred to as “TM-1 cells”) reported in Investigative Opthalmology & Visual Science, 43, 151-161 (2002) was used.
Culture medium 1: A reagent was prepared by adding fetal bovine serum (10%), L-glutamine (2 mM), amphotericin B (2.5 μg/mL), and gentamicin (25 μg/mL) to Dulbecco's Modified Eagle Medium (hereinafter referred to as “D-MEM”).
Culture medium 2: Fetal bovine serum (3%), L-glutamine (2 mM), amphotericin B (2.5 μg/mL), and gentamicin (25 μg/mL) were added to D-MEM.
Cell staining liquid: A mixed liquid of Calcein-AM (16 μM) and Hoechst 33342 (40 μM) was prepared by diluting a Calcein-AM solution (cytoplasmic staining reagent, manufactured by Dojindo Laboratories) and a Hoechst 33342 solution (nuclear staining reagent, manufactured by Dojindo Laboratories) with D-MEM containing L-glutamine (2 mM), amphotericin B (2.5 μg/mL), and gentamicin (25 μg/mL).
TM-1 cells subcultured at 37° C. in a 8% carbon dioxide gas atmosphere were treated with a trypsin/EDTA solution (0.05% trypsin and 0.53 mM tetrasodium ethylenediaminetetraacetate) at 24 hours before performing a drug treatment mentioned below and seeded on a 96-well culture plate. The culture medium 1 was used for the subculture of the cells. The culture medium 2 was used for the cell culture after seeding the cells on the plate.
A test compound was dissolved in dimethyl sulfoxide, whereby a 5 mM solution was prepared. Then, the resulting solution was diluted with the culture medium 2, whereby a 200 μM test compound solution was prepared.
It has been reported that Y-27632 which is a Rho kinase inhibitor induces a morphological change in trabecular meshwork cells in Investigative Opthalmology & Visual Science, 42, 137-144 (2001). Therefore, Y-27632 (produced according to the method described in WO 90/05723) was used as a positive control, and dissolved in dimethyl sulfoxide in the same manner as the test compound, whereby a 5 mM solution was prepared, and then, the resulting solution was diluted with the culture medium 2, whereby a 200 μM positive control compound solution was prepared.
1) To a 96-well culture plate, a solution of TM-1 cells adjusted to a cell density of […] was added in an amount of 95 μL (1.5×10^4 cells) per well.
2) Incubation was performed at 37° C. in a 8% carbon dioxide gas atmosphere for 24 hours.
3) The test compound solution or positive control compound solution was added in an amount of 5 μL per well (the final concentration of the test compound or positive control compound was 10 μM). As a control, the culture medium 2 containing dimethyl sulfoxide (4%) was added in an amount of 5 μL per well.
4) Incubation was performed at 37° C. in a 8% carbon dioxide gas atmosphere for 24 hours.
5) The cell staining liquid was added in an amount of 10 μL per well.
6) Incubation was performed at 37° C. in a 8% carbon dioxide gas atmosphere for 1 hour to stain the cells.
7) A 37% formaldehyde solution was added in an amount of 10 μL per well.
8) Incubation was performed at room temperature for 1 hour to fix the cells.
9) Washing with phosphate-buffered saline was performed.
10) Using Array Scan Vti HCS reader (manufactured by Cellomics), images of stained cells magnified with a 20-fold objective lens were captured in 80 fields (10 fields×8 wells) per test compound addition group.
11) CSI was calculated for each cell and an average value was obtained for each test compound addition group.
CSI was calculated using the following equation.
CSI=4π×(Cell Area)/(Cell Perimeter)^2

[2] = tested on: male Japanese White rabbits; experiment: Test for evaluation of intraocular pressure-lowering effect by intracameral administration; format: in vivo; details: 1 mM administration liquid, 20 μL intracameral, 8 or 9 hours after administration, vs vehicle control group, 6 cases
Description: In order to evaluate an intraocular pressure-lowering effect of the present compounds, a test for evaluation of intraocular pressure-lowering effect by intracameral administration of a drug using male Japanese White rabbits was performed.
A test compound was dissolved or suspended in physiological saline containing 0.5% dimethyl sulfoxide, whereby a 0.1 mM or 1 mM test compound administration liquid was prepared.
One drop of 0.4% oxybuprocaine hydrochloride eye drop was instilled into both eyes of each male Japanese White rabbit to achieve local anesthesia, and thereafter, the intraocular pressure was measured using an applanation tonometer. Then, by using a syringe fitted with a 30-gauge needle, the test compound administration liquid (20 μL) was intracamerally administered to one eye. As a control, 20 μL of the vehicle (physiological saline containing 0.5% dimethyl sulfoxide) for the test compound was intracamerally administered. After the lapse of a certain period of time from the administration of the test compound or vehicle, one drop of 0.4% oxybuprocaine hydrochloride eye drop was instilled into the administered eye to achieve local anesthesia, and thereafter, the intraocular pressure was measured using an applanation tonometer.
The intraocular pressure-lowering effect of each test compound was evaluated by calculating an intraocular pressure reduction rate. The intraocular pressure reduction rate (%) was calculated using the following equation.
(Intraocular Pressure Reduction Rate(%))=100×[{(Average Value of Intraocular Pressure of Control Group)−(Average Value of Intraocular Pressure of Each Test Compound Administration Group)}/(Average Value of Intraocular Pressure of Control Group)]

[3] = tested on: HDAC (HeLa nuclear extract); experiment: Test for evaluation of an HDAC inhibitory effect (HDAC Fluorimetric Assay/Drug Discovery Kit, Biomol); format: biochemical; details: final concentration of test compound 30 μM, rates of more than 100% are shown as 100%
Description: Using HDAC Fluorimetric Assay/Drug Discovery Kit (manufactured by Biomol), an HDAC inhibitory effect of the present compounds was measured according to the protocol included with the kit. The kit contains Buffer, HeLa nuclear extract (includes an HDAC), Substrate, Developer and Trichostatin A (an HDAC inhibitor).
A test compound was dissolved in dimethyl sulfoxide, whereby a 2 mg/mL solution was prepared. Then, the resulting solution was diluted with Buffer containing 5% dimethyl sulfoxide, whereby a 150 μM test compound solution was prepared.
1) To a 384-well culture plate, the test compound solution was added in an amount of 2 μL per well.
2) HeLa nuclear extract was diluted 30-fold with Buffer. The resulting solution was added in an amount of 3 μL per well and then, incubation was performed at 37° C. for 2 hours.
3) Substrate was diluted 500-fold with Buffer. The resulting solution was added in an amount of 5 μL per well (the final concentration of the test compound was 30 μM) and then, incubation was performed at 37° C. for 10 minutes.
4) Developer was diluted 20-fold with Buffer and Trichostatin A (2 μM) was added to it. The resulting solution was added in an amount of 10 μL per well and then, incubation was performed at room temperature for 15 minutes.
5) The fluorescence intensity of each well was measured using multilabel counter ARVO (manufactured by Wallac) with excitation at 360 nm and emission at 460 nm.
6) A control data was obtained from the same experiment except that Buffer containing 5% DMSO was added instead of the test compound solution as the above-mentioned procedure from 1) to 5).
7) A blank data was obtained from the same experiment except that Buffer containing 5% DMSO was added instead of the test compound solution and that Buffer was added instead of Hela nuclear extract as the above-mentioned procedure from 1) to 5).
Enzyme inhibitory rate (%) was calculated using the following equation.
(Enzyme Inhibitory Rate(%))=100×[1−{(Fluorescence Intensity of Test Compound Solution)−(Florescence Intensity of Blank)}/{(Florescence Intensity of Control)−(Florescence Intensity of Blank)}]

Row | Compound | CSI [1] | Intraocular Pressure Reduction Rate (%) [2] | Enzyme Inhibitory Rate (%) [3]
1 | O=C(CCCCCCC(=O)Nc1ccccc1)NO [SAHA, N-Hydroxy-N′-phenyloctanediamide, reference compound] | 0.501 | 17% | –
2 | CN(C)CCN(Cc1ccc(C(=O)Nc2ccccc2N)nc1)C(=O)Nc1nccs1 [Compound 1-96, N-(2-Aminophenyl)-5-[1-(2-dimethylaminoethyl)-3-(1,3-thiazol-2-yl)ureidomethyl]pyridine-2-carboxylic acid amide] | 0.489 | 18% | 98%
3 | CN(C)CCCN(Cc1ccc(C(=O)Nc2ccccc2N)nc1)C(=O)NCC(=O)c1ccccc1 [Compound 1-40, N-(2-Aminophenyl)-5-[1-(3-dimethylaminopropyl)-3-(phenylcarbonylmethyl)ureidomethyl]pyridine-2-carboxylic acid amide] | 0.572 | – | 97%
4 | Cc1cccc(NC(=O)N(CCN(C)C)Cc2ccc(C(=O)Nc3ccccc3N)nc2)c1 [Compound 1-79, N-(2-Aminophenyl)-5-[1-(2-dimethylaminoethyl)-3-(3-methylphenyl)ureidomethyl]pyridine-2-carboxylic acid amide] | 0.497 | – | 98%
5 | CCN(CC)CCCN(Cc1ccc(C(=O)Nc2ccccc2N)nc1)C(=O)Nc1ccc(F)c([N+](=O)[O-])c1 [Compound 1-51, N-(2-Aminophenyl)-5-[1-(3-diethylaminopropyl)-3-(4-fluoro-3-nitrophenyl)ureidomethyl]pyridine-2-carboxylic acid amide] | 0.518 | – | 98%
6 | CN(C)CCCN(Cc1ccc(C(=O)Nc2ccccc2N)nc1)C(=O)Nc1ccc(F)c(F)c1 [Compound 1-4, N-(2-Aminophenyl)-5-[3-(3,4-difluorophenyl)-1-(3-dimethylaminopropyl)ureidomethyl]pyridine-2-carboxylic acid amide] | 0.556 | – | 100%
7 | Nc1ccccc1NC(=O)c1ccc(CN(CCCCCN2CCOCC2)C(=O)NC2CCCC2)cn1 [Compound 1-141, N-(2-Aminophenyl)-5-[3-cyclopentyl-1-[5-(morpholin-4-yl)pentyl]ureidomethyl]pyridine-2-carboxylic acid amide] | 0.515 | – | 91%
8 | Nc1ccccc1NC(=O)c1ccc(CNc2nccc(-c3cccnc3)n2)cc1 [MGCD-0103 free base, N-(2-Aminophenyl)-4-[4-(pyridin-3-yl)pyrimidin-2-ylaminomethyl]benzamide, reference compound] | 0.584 | 23% | 96%
9 | Cc1ccc(C(=O)c2cc(/C=C/C(=O)NO)n(C)c2)cc1 [MC1293, (E)-N-Hydroxy-3-[1-methyl-4-(4-methylbenzoyl)-1H-pyrrol-2-yl]-2-propenamide, reference compound] | 0.628 | – | 65%
10 | CN(C)CCCN(Cc1ccc(C(=O)Nc2ccccc2N)nc1)C(=O)Nc1cccc(F)c1 [Compound 1-10, N-(2-Aminophenyl)-5-[1-(3-dimethylaminopropyl)-3-(3-fluorophenyl)ureidomethyl]pyridine-2-carboxylic acid amide] | 0.528 | – | 98%
11 | Nc1ccccc1NC(=O)c1ccc(CNC(=O)OCc2cccnc2)cc1 [MS 275, N-(2-Aminophenyl)-4-(pyridin-3-ylmethyloxycarbonylaminomethyl)benzamide, reference compound] | 0.552 | 13% | 99%
12 | CCN(CC)CCCN(Cc1ccc(C(=O)Nc2ccccc2N)nc1)C(=O)Nc1ccc(F)c(F)c1 [Compound 1-46, N-(2-Aminophenyl)-5-[1-(3-diethylaminopropyl)-3-(3,4-difluorophenyl)ureidomethyl]pyridine-2-carboxylic acid amide] | 0.547 | – | 98%
13 | CN(C)CCCN(Cc1ccc(C(=O)Nc2ccccc2N)nc1)C(=O)Nc1nc2ccccc2[nH]1 [Compound 1-31, N-(2-Aminophenyl)-5-[3-(1H-benzimidazol-2-yl)-1-(3-dimethylaminopropyl)ureidomethyl]pyridine-2-carboxylic acid amide] | 0.551 | – | 99%
14 | COc1ccc2nc(NC(=O)N(CCCN(C)C)Cc3ccc(C(=O)Nc4ccccc4N)nc3)sc2c1 [Compound 1-42, N-(2-Aminophenyl)-5-[1-(3-dimethylaminopropyl)-3-(6-methoxy-1,3-benzothiazol-2-yl)ureidomethyl]pyridine-2-carboxylic acid amide] | 0.536 | – | 98%
15 | CN(C)CCCN(Cc1ccc(C(=O)Nc2ccccc2N)nc1)C(=O)Nc1nccs1 [Compound 1-41, N-(2-Aminophenyl)-5-[1-(3-dimethylaminopropyl)-3-(1,3-thiazol-2-yl)ureidomethyl]pyridine-2-carboxylic acid amide] | 0.499 | – | 96%
